{"source": "the supplement of paper PMC10307832", "experiment_in_all_cases": "relative viability (nuclei count vs DMSO), 5 days (fraction); higher = more cells survive", "key": {"Fedratinib + Dasatinib": {"compound": "Cc1cnc(Nc2ccc(OCCN3CCCC3)cc2)nc1Nc1cccc(S(=O)(=O)NC(C)(C)C)c1 [Fedratinib] + Cc1nc(Nc2ncc(C(=O)Nc3c(C)cccc3Cl)s2)cc(N2CCN(CCO)CC2)n1 [Dasatinib] (partner 0.075 µM)", "method_in_brief": "(§1)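 Relative viability is defined as nuclei in treated wells over nuclei in vehicle wells. Duplicate plates were run and medians reported. Lung cancer cell lines in 1536-well plates were dosed by pin tool one day after seeding, with one drug or with a fixed anchor-drug dose plus five library-drug doses (not always all listed) in √10 steps, and nuclei were counted after 5 days.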"}, "Fedratinib + Navitoclax": {"compound": "Cc1cnc(Nc2ccc(OCCN3CCCC3)cc2)nc1Nc1cccc(S(=O)(=O)NC(C)(C)C)c1 [Fedratinib] + CC1(C)CCC(c2ccc(Cl)cc2)=C(CN2CCN(c3ccc(C(=O)NS(=O)(=O)c4ccc(N[C@H](CCN5CCOCC5)CSc5ccccc5)c(S(=O)(=O)C(F)(F)F)c4)cc3)CC2)C1 [Navitoclax] (partner 0.5 µM)", "method_in_brief": "as §1"}, "GW-2580 + Olaparib": {"compound": "COC1=CC=C(C=C1)COC2=C(C=C(C=C2)CC3=CN=C(N=C3N)N)OC [GW-2580] + O=C(c1cc(Cc2n[nH]c(=O)c3ccccc23)ccc1F)N1CCN(C(=O)C2CC2)CC1 [Olaparib] (partner 8 µM)", "method_in_brief": "as §1"}, "GW-2580 + Palbociclib": {"compound": "COC1=CC=C(C=C1)COC2=C(C=C(C=C2)CC3=CN=C(N=C3N)N)OC [GW-2580] + CC(=O)c1c(C)c2cnc(Nc3ccc(N4CCNCC4)cn3)nc2n(C2CCCC2)c1=O [Palbociclib] (partner 0.5 µM)", "method_in_brief": "as §1"}, "Fedratinib + Pictilisib": {"compound": "Cc1cnc(Nc2ccc(OCCN3CCCC3)cc2)nc1Nc1cccc(S(=O)(=O)NC(C)(C)C)c1 [Fedratinib] + CS(=O)(=O)N1CCN(Cc2cc3nc(-c4cccc5[nH]ncc45)nc(N4CCOCC4)c3s2)CC1 [Pictilisib] (partner 1 µM)", "method_in_brief": "as §1"}, "GW-2580 + Bortezomib": {"compound": "COC1=CC=C(C=C1)COC2=C(C=C(C=C2)CC3=CN=C(N=C3N)N)OC [GW-2580] + CC(C)C[C@H](NC(=O)[C@H](Cc1ccccc1)NC(=O)c1cnccn1)B(O)O [Bortezomib] (partner 0.002 µM)", "method_in_brief": "as §1"}}, "data": [{"cell line": "UMC-11", "values": [{"measurement": "relative viability", "setting": "Fedratinib + Dasatinib; first compound 0.1 µM", "value": 0.53}, {"measurement": "relative viability", "setting": "Fedratinib + Dasatinib; first compound 0.3162 µM", "value": 0.412}, {"measurement": "relative viability", "setting": "Fedratinib + Dasatinib; first compound 1 µM", "value": 0.453}, {"measurement": "relative viability", "setting": "Fedratinib + Navitoclax; first compound 0.1 µM", "value": 0.31}, {"measurement": "relative viability", "setting": "Fedratinib + Navitoclax; first compound 0.3162 µM", "value": 0.275}, {"measurement": "relative viability", "setting": "Fedratinib + Navitoclax; first compound 1 µM", "value": 0.228}, {"measurement": "relative viability", "setting": "GW-2580 + Olaparib; first compound 0.08 µM", "value": 0.358}, {"measurement": "relative viability", "setting": "GW-2580 + Olaparib; first compound 0.8 µM", "value": 0.375}, {"measurement": "relative viability", "setting": "GW-2580 + Olaparib; first compound 2.53 µM", "value": 0.464}, {"measurement": "relative viability", "setting": "GW-2580 + Olaparib; first compound 8 µM", "value": 0.436}, {"measurement": "relative viability", "setting": "GW-2580 + Palbociclib; first compound 0.08 µM", "value": 0.329}, {"measurement": "relative viability", "setting": "GW-2580 + Palbociclib; first compound 0.8 µM", "value": 0.352}, {"measurement": "relative viability", "setting": "GW-2580 + Palbociclib; first compound 8 µM", "value": 0.348}, {"measurement": "relative viability", "setting": "Fedratinib + Pictilisib; first compound 0.1 µM", "value": 0.672}, {"measurement": "relative viability", "setting": "Fedratinib + Pictilisib; first compound 0.3162 µM", "value": 0.82}, {"measurement": "relative viability", "setting": "Fedratinib + Pictilisib; first compound 1 µM", "value": 0.397}, {"measurement": "relative viability", "setting": "GW-2580 + Bortezomib; first compound 0.08 µM", "value": 0.793}, {"measurement": "relative viability", "setting": "GW-2580 + Bortezomib; first compound 0.8 µM", "value": 0.758}, {"measurement": "relative viability", "setting": "GW-2580 + Bortezomib; first compound 2.53 µM", "value": 0.788}, {"measurement": "relative viability", "setting": "GW-2580 + Bortezomib; first compound 8 µM", "value": 0.603}]}]}
